Reference: PMC4624963, “Enzymatic Characterization of Recombinant Food Vacuole Plasmepsin 4 from the Rodent Malaria Parasite Plasmodium berghei” (PLoS ONE, 2015)
Read-outs that look alike come from different tables or passages of the source. Where a SMILES comes first, the peptide text is derived from it. [ ]: non-standard residue; d: D form. The star is where a group is joined. Sta = CC(C)C[C@H](N)[C@@H](O)CC(=O)O; Isovaleryl = CC(C)CC(=O)*

What was measured:
PmPM4 = conditions: read-out: Dissociation Constant (K i) PmPM4; cited from earlier work
PoPM4 = conditions: read-out: Dissociation Constant (K i) PoPM4; cited from earlier work
PvPM4 = PvPM4 (Plasmodium vivax, UniProt O60989); assay: biochemical
Method: (§1) Dissociation constants were determined as previously described.
(§2) Besides PbPM4, the cloning, expression and purification of recombinant human FV plasmepsins, including PfPM1, 2 and 4, PoPM4, PvPM4 and PmPM4, and hcatD were performed according to experimental procedures described in previous reports. Briefly, genes encoding N-terminally truncated semi-pro-enzymes were cloned from genomic DNA, or intra-erythrocyte stage cDNA library of Plasmodium spp. (e.g., in the case of PfPM1), and inserted to pET expression vectors (EMD Millipore). Protein expression, inclusion body preparation and in vitro protein refolding were performed as described above for PbPM4. Proteins were purified using anion exchange chromatography.
(§3) The enzymes were prepared for kinetic assays: purified proPbPM4 was pre-incubated in 100 mM sodium citrate, pH 5.0, at 37°C for 5 min; purified mature PfPM1 was pre-incubated in 100 mM sodium citrate, pH 5.5, at 37°C for 3 min; all the other plasmepsins were pre-incubated in 100 mM sodium formate, pH 4.5, at 37°C for 5 min to convert zymogen to mature enzyme before the addition of substrates. Pre-incubation of hcatD was carried out in 200 mM sodium formate, pH 3.7, at 37°C for 5 min. […] The concentration of compound 1 was determined by amino acid analysis. Dissociation constants (Ki) were determined as described above.

PfPM1 = PfPM1 (Plasmodium falciparum, UniProt P39898); assay: biochemical
Method: as §1, §2, §3

[1] = target: T1, human cathepsin D (hcatD) (Homo sapiens, UniProt P07339); assay: Inhibition of human cathepsin D, dissociation constants (Ki); assay type: biochemical; conditions: pre-incubated in 200 mM sodium formate pH 3.7, 37°C, 5 min; read-out: Dissociation Constant (K i) hCatD
T1 construct: made in house
Method: as §1
Proteins were purified using anion exchange chromatography.
Dissociation constants (Ki) were determined as described above.

PbPM4 [2] = target: T2, PbPM4 (Plasmodium berghei, UniProt O76965); assay: Inhibition of mature PbPM4, dissociation constants (Ki) from initial cleavage velocities of a chromogenic peptide substrate; assay type: biochemical
Method: (§4) Chromogenic peptide substrates were dissolved in a solution containing 20% dimethyl sulfoxide (DMSO), 10% formic acid, and 70% distilled deionized water to generate stock solutions. Inhibitor stock solutions were prepared in 100% DMSO. The concentrations of the stock solutions were determined by amino acid analysis.
(§5) Kinetic assays were set up in 500 mM sodium citrate, pH 5.0 at 37°C with a 5-min pre-equilibrium time with buffer. To study kinetics of the zymogen form, assays were set up in 500 mM sodium citrate, pH 5.5 at 37°C with a 5-min pre-equilibrium time. All enzymatic reactions were carried out at 37°C.
as §1
The enzymes were prepared for kinetic assays: purified proPbPM4 was pre-incubated in 100 mM sodium citrate, pH 5.0, at 37°C for 5 min; purified mature PfPM1 was pre-incubated in 100 mM sodium citrate, pH 5.5, at 37°C for 3 min; all the other plasmepsins were pre-incubated in 100 mM sodium formate, pH 4.5, at 37°C for 5 min to convert zymogen to mature enzyme before the addition of substrates. Pre-incubation of hcatD was carried out in 200 mM sodium formate, pH 3.7, at 37°C for 5 min. Compound 1 was dissolved in 100% DMSO, and filtered through a 0.45 μm Costar cellulose acetate tube filter by centrifugation at 20,000 g, room temperature for 5 min to remove any particulate. The concentration of compound 1 was determined by amino acid analysis. Dissociation constants (Ki) were determined as described above.

PbPM4 [3] = target: T2, PbPM4; assay: Kinetic analysis of cleavage of chromogenic peptide substrates by mature PbPM4; assay type: biochemical; conditions: sodium citrate pH 5.0, 37°C
Method: as §4, §5
The substrate hydrolysis was analyzed by spectroscopy and defined as the decrease of the average absorbance between 284–324 nm. Pre-equilibrated enzyme was mixed with substrate at least six different concentrations (μM). The initial cleavage velocities (AU/sec) of these reactions were immediately measured on a Cary 50 Bio UV-Visible spectrophotometer. The initial cleavage rates (M/sec) were converted from the observed velocities (AU/sec) by dividing the observed velocities by the total absorbance changes upon complete enzymatic digestion of the substrate of known concentrations (i.e., AU/M).
The total concentration of active enzyme, [E]tot, was determined by titrating PbPM4 enzyme with the tight binding, competitive, aspartic proteinase inhibitor pepstatin A. A constant amount of pre-equilibrated enzyme was mixed either with 100 μM of the peptide substrate Lys-Pro-Ile-Leu-Phe*Nph-Arg-Leu or with both 100 μM of substrate and pepstatin A at a series of different concentrations. The initial cleavage rates of the substrate at different inhibitor concentrations were immediately measured afterwards using a Cary 50 Bio UV-Visible spectrophotometer.

T2 sequence (O76965 entry or part of it): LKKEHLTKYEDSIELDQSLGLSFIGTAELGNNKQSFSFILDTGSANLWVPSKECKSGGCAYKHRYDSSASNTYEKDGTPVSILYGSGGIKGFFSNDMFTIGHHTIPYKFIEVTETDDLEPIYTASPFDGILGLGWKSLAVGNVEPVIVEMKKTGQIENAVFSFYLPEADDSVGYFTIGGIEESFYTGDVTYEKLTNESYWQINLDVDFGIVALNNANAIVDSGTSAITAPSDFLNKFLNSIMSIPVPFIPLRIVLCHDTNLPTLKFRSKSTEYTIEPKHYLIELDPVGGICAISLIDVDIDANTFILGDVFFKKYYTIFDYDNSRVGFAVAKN
Sequence of PvPM4 (O60989 122-450 limits assumed): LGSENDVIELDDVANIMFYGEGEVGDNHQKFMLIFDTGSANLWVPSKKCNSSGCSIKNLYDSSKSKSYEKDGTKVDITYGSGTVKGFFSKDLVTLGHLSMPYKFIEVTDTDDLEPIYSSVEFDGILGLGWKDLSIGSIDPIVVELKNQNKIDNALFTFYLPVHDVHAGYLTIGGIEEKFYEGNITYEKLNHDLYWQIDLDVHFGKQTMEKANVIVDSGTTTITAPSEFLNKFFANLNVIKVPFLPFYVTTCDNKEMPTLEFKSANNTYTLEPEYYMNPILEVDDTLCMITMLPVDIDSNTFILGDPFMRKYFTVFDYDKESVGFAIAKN
Sequence of PfPM1 (P39898 124-452): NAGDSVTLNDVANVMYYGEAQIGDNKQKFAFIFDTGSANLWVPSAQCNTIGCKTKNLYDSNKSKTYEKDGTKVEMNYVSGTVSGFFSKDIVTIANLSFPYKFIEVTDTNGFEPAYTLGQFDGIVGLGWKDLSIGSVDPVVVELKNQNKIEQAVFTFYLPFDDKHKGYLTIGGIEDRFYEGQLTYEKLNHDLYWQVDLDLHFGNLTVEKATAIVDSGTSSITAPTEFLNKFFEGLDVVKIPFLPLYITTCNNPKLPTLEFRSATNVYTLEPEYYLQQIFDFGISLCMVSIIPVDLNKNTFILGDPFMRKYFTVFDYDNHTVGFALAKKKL
T1 sequence (P07339 65-412): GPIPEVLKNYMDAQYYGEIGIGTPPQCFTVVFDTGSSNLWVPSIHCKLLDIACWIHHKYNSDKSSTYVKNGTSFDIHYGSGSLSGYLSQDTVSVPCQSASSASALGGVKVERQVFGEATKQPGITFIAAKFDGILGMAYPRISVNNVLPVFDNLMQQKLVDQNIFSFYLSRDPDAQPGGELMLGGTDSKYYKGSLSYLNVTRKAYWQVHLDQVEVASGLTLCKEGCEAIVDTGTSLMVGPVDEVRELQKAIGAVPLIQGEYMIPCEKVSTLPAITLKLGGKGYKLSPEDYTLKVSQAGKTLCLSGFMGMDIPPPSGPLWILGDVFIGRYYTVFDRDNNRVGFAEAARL

Compound | Ki (PmPM4) [nM] | Ki (PoPM4) [nM] | also measured
CCCC[C@@H](CN[C@@H](CC(C)C)C(=O)N[C@@H](CCC(N)=O)C(=O)N[C@H](C(=O)O)[C@@H](C)CC)NC(=O)[C@H](CO)NC(=O)[C@H](CCCC)NC(=O)[C@@H]1CCCN1C(=O)[C@@H](N)CCCCN [Compound 3, KPnLSnLΨLQI] | 160 ± 26 | 187 ± 29 | 
CC(C)[C@H](NC(=O)[C@@H]1CCCN1C(=O)[C@@H](N)CCCCN)C(=O)N[C@@H](CCC(=O)O)C(=O)N[C@H](CN[C@@H](CCCNC(=N)N)C(=O)N[C@@H](CCC(N)=O)C(=O)N[C@H](C(=O)O)[C@@H](C)O)Cc1ccccc1 [Compound 4, KPVEFΨRQT] | 10.3 ± 1.3 | 39 ± 4.5 | 
CC(C)C[C@@H](CN[C@@H](CC(C)C)C(=O)N[C@@H](CCC(N)=O)C(=O)N[C@@H](Cc1ccccc1)C(=O)O)NC(=O)[C@H](CO)NC(=O)[C@H](Cc1ccccc1)NC(=O)[C@@H]1CCCN1C(=O)[C@@H](N)CCCCN [Compound 2, KPFSLΨLQF] |  | 767 ± 81 | 
CC(C)C[C@@H](CN[C@@H](C)C(=O)N[C@@H](Cc1c[nH]c2ccccc12)C(=O)N[C@H](C(=O)O)[C@@H](C)O)NC(=O)[C@H](CCC(=O)O)NC(=O)[C@H](Cc1ccccc1)NC(=O)[C@@H]1CCCN1C(=O)[C@@H](N)CCCCN [Compound 7, KPFELΨAWT] | 9000 | > 20000 | 
N=C(N)NCCC[C@H](NC[C@H](Cc1ccccc1)NC(=O)[C@H](CCC(=O)O)NC(=O)[C@H](Cc1ccc(O)cc1)NC(=O)[C@@H]1CCCN1C(=O)[C@@H](N)CCCCN)C(=O)N[C@@H](CCC(N)=O)C(=O)N[C@@H](Cc1ccccc1)C(=O)O [Compound 1, KPYEFΨRQF] |  |  | Ki (PvPM4): 426 ± 44 nM; Ki (PfPM1): > 100 µM; Ki [1]: 41 µM; selectivity to PbPM4 and the four plasmepsin 4 homologs of human malaria parasites versus hcatD (PbPM4 [2]; from K i values): > 10 fold; Ki (PbPM4 [2]; proPbPM4 pre-incubated in 100 mM sodium citrate pH 5.0, 37°C, 5 min, read-out: Dissociation Constant (K i) PbPM4): 3900 nM
Lys-Pro-Ile-Leu-Phe*Nph-Arg-Leu [K-P-I-L-F*Nph-R-L] |  |  | K m (PbPM4 [3]): 2.1 ± 0.2 µM; k cat (PbPM4 [3]): 34.9 ± 5.7 s⁻¹; k cat/K m (PbPM4 [3]): 16.5 ± 2.9 µM⁻¹ s⁻¹
CC(C)C[C@H](NC(=O)[C@@H]1CCCN1C(=O)[C@@H](N)CCCCN)C(=O)N[C@@H](CCC(=O)O)C(=O)N[C@H](CN[C@@H](Cc1ccccc1)C(=O)N[C@@H](CCCNC(=N)N)C(=O)N[C@H](C(=O)O)C(C)C)Cc1ccccc1 [Compound 5, KPLEFΨFRV] | 3.7 ± 0.6 | 3.2 ± 0.5 | 
CC(C)CC(=O)N[C@H](C(=O)N[C@H](C(=O)N[C@@H](CC(C)C)[C@@H](O)CC(=O)N[C@@H](C)C(=O)N[C@@H](CC(C)C)[C@@H](O)CC(=O)O)C(C)C)C(C)C [pepstatin A, reference compound] (Isovaleryl-VV[Sta]A[Sta]-OH) |  |  | Ki (PbPM4 [2]; mature PbPM4, sodium citrate pH 5.0, 37°C, 5 min pre-equilibrium, read-out: K i): 0.11 ± 0.02 nM
CC(C)C[C@H](NC(=O)[C@@H]1CCCN1C(=O)[C@@H](N)CCCCN)C(=O)N[C@@H](CCC(=O)O)C(=O)N[C@H](CN[C@@H](Cc1ccc(O)cc1)C(=O)N[C@@H](CCCNC(=N)N)C(=O)N[C@H](C(=O)O)C(C)C)Cc1ccccc1 [Compound 6, KPLEFΨYRV] | 0.342 ± 0.047 | 3.2 ± 0.5 | 
